In PubChem BioAssay (NCI):
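Cultured in 96-well plates, cells were exposed to test compound for 48 hours across five concentrations. TGI: total growth inhibition.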

Assays:
Experiment in all cases: growth of human tumour cells (NCI), 48 h
MCF7 breast = tested on: MCF7 breast
OVCAR-5 ovarian = tested on: OVCAR-5 ovarian
RPMI-8226 leukemia = tested on: RPMI-8226 leukemia
NCI/ADR-RES ovarian = tested on: NCI/ADR-RES ovarian
EKVX NSCLC = tested on: EKVX NSCLC
MDA-MB-231 breast = tested on: MDA-MB-231 breast
MALME-3M melanoma = tested on: MALME-3M melanoma
SK-MEL-28 melanoma = tested on: SK-MEL-28 melanoma
MDA-MB-435 = tested on: MDA-MB-435
LOX IMVI melanoma = tested on: LOX IMVI melanoma
A549 NSCLC = tested on: A549 NSCLC
RXF 393 renal = tested on: RXF 393 renal
HOP-62 NSCLC = tested on: HOP-62 NSCLC
PC-3 prostate = tested on: PC-3 prostate
U251 CNS = tested on: U251 CNS
NCI-H522 lung = tested on: NCI-H522 lung
SK-OV-3 ovarian = tested on: SK-OV-3 ovarian

Structure (SMILES)	TGI (MCF7 breast)	TGI (OVCAR-5 ovarian)	TGI (RPMI-8226 leukemia)	TGI (NCI/ADR-RES ovarian)	TGI (EKVX NSCLC)	TGI (MDA-MB-231 breast)	TGI (MALME-3M melanoma)	TGI (SK-MEL-28 melanoma)	TGI (MDA-MB-435)	TGI (LOX IMVI melanoma)	TGI (A549 NSCLC)	TGI (RXF 393 renal)	TGI (HOP-62 NSCLC)	TGI (PC-3 prostate)	TGI (U251 CNS)	TGI (NCI-H522 lung)	TGI (SK-OV-3 ovarian)
CCOC(=O)CCCc1cc(=O)c2c(C)c3[nH]c4ccc(Cl)cc4c3c(C)c2[nH]1	47.4 µM	> 100 µM	> 100 µM	66.2 µM	> 100 µM	69.7 µM	73.2 µM	> 100 µM	47.8 µM	> 100 µM	43.5 µM	27.1 µM	44.4 µM	70.6 µM	50.5 µM	–	–
O=S(=O)(N=[Se](=O)(c1ccccc1)c1ccccc1)c1ccccc1	> 100 µM	> 100 µM	> 100 µM	> 100 µM	> 100 µM	> 100 µM	–	> 100 µM	> 100 µM	> 100 µM	–	–	> 100 µM	> 100 µM	> 100 µM	> 100 µM	> 100 µM
C[Si](C)(C)CCOCN(C(=O)C1=CCC2(CC1)OCCO2)c1ccccc1I	34.4 µM	41.9 µM	52.2 µM	> 100 µM	29.1 µM	56.6 µM	52.9 µM	42.9 µM	33.8 µM	> 100 µM	88.2 µM	35.4 µM	42.1 µM	27 µM	> 100 µM	38.7 µM	33.4 µM
C#CCNCC(=O)O	> 100 µM	> 100 µM	> 100 µM	> 100 µM	> 100 µM	> 100 µM	> 100 µM	> 100 µM	> 100 µM	–	> 100 µM	> 100 µM	> 100 µM	> 100 µM	> 100 µM	> 100 µM	> 100 µM
CC(=O)O[C@H]1[C@@H](OC2CCCC2(c2ccccc2)c2ccccc2)O[N+]([O-])=C[C@@H]1c1ccccc1 (stereo not given in full)	11.3 µM	35.6 µM	18.9 µM	12.9 µM	30.4 µM	40.9 µM	–	8.65 µM	11.3 µM	5.04 µM	30.9 µM	8.48 µM	38.2 µM	21.2 µM	27.3 µM	2.62 µM	29 µM
COC(=O)c1ccccc1/C=C1\Cc2ccc3c(c2C1=O)CCC3	> 100 µM	> 100 µM	> 100 µM	> 100 µM	> 100 µM	> 100 µM	> 100 µM	> 100 µM	> 100 µM	> 100 µM	> 100 µM	> 100 µM	> 100 µM	> 100 µM	> 100 µM	> 100 µM	> 100 µM
CN1C(=O)C(O)CC1c1ccccc1F (stereo not given)	> 100 µM	> 100 µM	> 100 µM	> 100 µM	> 100 µM	> 100 µM	> 100 µM	> 100 µM	> 100 µM	> 100 µM	> 100 µM	> 100 µM	> 100 µM	> 100 µM	> 100 µM	> 100 µM	–
CCc1n[nH]c(=O)n1-n1c(C)ccc1C	> 100 µM	> 100 µM	> 100 µM	> 100 µM	> 100 µM	> 100 µM	> 100 µM	> 100 µM	> 100 µM	> 100 µM	> 100 µM	> 100 µM	> 100 µM	> 100 µM	> 100 µM	> 100 µM	> 100 µM
CC(C)(C)OC(=O)NC(Cc1ccc(OC(C)(C)C)cc1)C(=O)N[C@H]1CC[C@H](C(=O)O)C1 (stereo not given in full)	> 100 µM	> 100 µM	> 100 µM	> 100 µM	> 100 µM	> 100 µM	–	> 100 µM	> 100 µM	> 100 µM	> 100 µM	–	> 100 µM	> 100 µM	> 100 µM	> 100 µM	> 100 µM
CSc1ccccc1NC1=NCCO1	> 100 µM	> 100 µM	> 100 µM	> 100 µM	> 100 µM	> 100 µM	> 100 µM	> 100 µM	> 100 µM	> 100 µM	> 100 µM	> 100 µM	> 100 µM	> 100 µM	> 100 µM	> 100 µM	–
CSc1ncc2c(C#N)c3n(C)c4ccccc4n3c(=O)c2n1	> 100 µM	> 100 µM	> 100 µM	> 100 µM	> 100 µM	> 100 µM	> 100 µM	> 100 µM	> 100 µM	> 100 µM	> 100 µM	> 100 µM	> 100 µM	> 100 µM	> 100 µM	–	> 100 µM
CN(C)C12C=CC=CC3=C(c4ccccc4)C(c4ccccc4)=C(c4ccccc4)C31c1ccccc1C2 (stereo not given)	> 100 µM	> 100 µM	> 100 µM	> 100 µM	> 100 µM	> 100 µM	–	> 100 µM	> 100 µM	–	> 100 µM	–	> 100 µM	> 100 µM	> 100 µM	> 100 µM	> 100 µM
C=C(C)C1Cc2c(cc3c(c2O)c(=O)c2ccccc2n3C)O1 (stereo not given)	17 µM	26.1 µM	9.72 µM	8.19 µM	35.3 µM	6.72 µM	3.41 µM	24.9 µM	20.7 µM	–	24.9 µM	8.52 µM	25.2 µM	19.3 µM	12.7 µM	–	13.5 µM
O=C(Oc1ccc(C(c2c(O)c3ccccc3oc2=O)c2c(O)c3ccccc3oc2=O)cc1)c1ccc(C(=O)c2ccccc2)cc1	> 100 µM	38.3 µM	56.5 µM	34.8 µM	34.6 µM	> 100 µM	–	36.5 µM	42.3 µM	52.1 µM	55.8 µM	83.6 µM	69.9 µM	35.8 µM	54.7 µM	30.6 µM	33.4 µM
